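48-hour exposure; five concentrations; linearly interpolated endpoints. GI50 marks 50% less growth.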 Active and inactive are the calls of the source. No stated cut-off is given here; in the data, active = GI50 up to about 1.1 µM and inactive = higher.
What was measured:
Assay in all cases: DTP human tumour cell line panel, 48 h
ACHN = test system: ACHN
HCC 2998 = test system: HCC 2998
HCT-15 = test system: HCT-15
NCI-H226 = test system: NCI-H226
NCI-H23 = test system: NCI-H23
NCI-H460 = test system: NCI-H460
NCI-H522 = test system: NCI-H522
OVCAR-3 = test system: OVCAR-3
OVCAR-4 = test system: OVCAR-4
OVCAR-5 = test system: OVCAR-5
OVCAR-8 = test system: OVCAR-8
RPMI-8226 = test system: RPMI-8226
SF-268 = test system: SF-268
SK-MEL-28 = test system: SK-MEL-28
SK-OV-3 = test system: SK-OV-3
SR = test system: SR
U-251 = test system: U-251
UACC-257 = test system: UACC-257
SN12C = test system: SN12C
Malme-3M = test system: Malme-3M

| SMILES | GI50 (ACHN) | GI50 (HCC 2998) | GI50 (HCT-15) [µM] | GI50 (NCI-H226) | GI50 (NCI-H23) | GI50 (NCI-H460) | GI50 (NCI-H522) | GI50 (OVCAR-3) | GI50 (OVCAR-4) | GI50 (OVCAR-5) | GI50 (OVCAR-8) | GI50 (RPMI-8226) | GI50 (SF-268) | GI50 (SK-MEL-28) | GI50 (SK-OV-3) | GI50 (SR) | GI50 (U-251) | GI50 (UACC-257) | GI50 (SN12C) | GI50 (Malme-3M) |
| --- | --- | --- | --- | --- | --- | --- | --- | --- | --- | --- | --- | --- | --- | --- | --- | --- | --- | --- | --- | --- |
| N#Cc1c(OCCF)c2ccccc2n2c1nc1ccccc12 | 23.3 µM (inactive) | > 100 µM (inactive) | 32.7 | 63.5 µM (inactive) | 69 µM (inactive) | 21.7 µM (inactive) | 19.6 µM (inactive) | 67 µM (inactive) | 32.3 µM (inactive) | > 100 µM (inactive) | 42.3 µM (inactive) | > 100 µM (inactive) | 27 µM (inactive) | > 100 µM (inactive) | 27 µM (inactive) | > 100 µM (inactive) | 37.6 µM (inactive) | 93.3 µM (inactive) |  |  |
| COc1ccc(NC(=O)CC(=O)N2N=C(N3c4ccccc4Sc4ccccc43)CC2c2ccccc2)cc1 (configuration not stated) | > 100 µM (inactive) | > 100 µM (inactive) | > 100 | > 100 µM (inactive) | > 100 µM (inactive) | > 100 µM (inactive) | > 100 µM (inactive) | > 100 µM (inactive) | > 100 µM (inactive) | > 100 µM (inactive) | > 100 µM (inactive) | > 100 µM (inactive) | 23.4 µM (inactive) | > 100 µM (inactive) | > 100 µM (inactive) | > 100 µM (inactive) | > 100 µM (inactive) | > 100 µM (inactive) | > 100 µM (inactive) |  |
| COC1OC2COC(c3ccccc3)OC2C(OC(=S)c2ccccc2)C1O (configuration not stated) | 75.5 µM (inactive) |  | > 100 | 25.1 µM (inactive) | 82.4 µM (inactive) | 65.9 µM (inactive) |  | > 100 µM (inactive) | > 100 µM (inactive) | > 100 µM (inactive) | 16.9 µM (inactive) | 13.9 µM (inactive) | 27 µM (inactive) | 0.662 µM (active) | 19.2 µM (inactive) | > 100 µM (inactive) | 11.5 µM (inactive) | > 100 µM (inactive) | 46.3 µM (inactive) | 4.45 µM (inactive) |
| C1=N\CCOCC/N=C\c2ccc(cc2)OCc2cccc(n2)COc2ccc/1cc2 | > 100 µM (inactive) |  | > 100 | 57.8 µM (inactive) | > 100 µM (inactive) | > 100 µM (inactive) | > 100 µM (inactive) | 37.6 µM (inactive) | > 100 µM (inactive) | > 100 µM (inactive) | > 100 µM (inactive) | > 100 µM (inactive) | > 100 µM (inactive) | > 100 µM (inactive) | > 100 µM (inactive) | > 100 µM (inactive) | > 100 µM (inactive) | > 100 µM (inactive) | > 100 µM (inactive) | > 100 µM (inactive) |
| Cc1ccc(N2C(=O)C3CSCN3C2=O)cc1 (configuration not stated) |  | > 100 µM (inactive) | > 100 | > 100 µM (inactive) | > 100 µM (inactive) | > 100 µM (inactive) | > 100 µM (inactive) | > 100 µM (inactive) | > 100 µM (inactive) | > 100 µM (inactive) | > 100 µM (inactive) | > 100 µM (inactive) | > 100 µM (inactive) | 15.8 µM (inactive) | > 100 µM (inactive) |  | > 100 µM (inactive) | > 100 µM (inactive) | > 100 µM (inactive) |  |
| C=CCc1c(O)c2c(c3oc(=O)cc(C)c13)CC(C)O2 (configuration not stated) | > 100 µM (inactive) | > 100 µM (inactive) | > 100 | 41.5 µM (inactive) | > 100 µM (inactive) | 52.5 µM (inactive) | > 100 µM (inactive) | > 100 µM (inactive) | > 100 µM (inactive) | > 100 µM (inactive) | 65.3 µM (inactive) | 60.8 µM (inactive) | > 100 µM (inactive) |  | > 100 µM (inactive) | > 100 µM (inactive) | > 100 µM (inactive) | > 100 µM (inactive) | > 100 µM (inactive) | > 100 µM (inactive) |
| O=C(NC1C=Nc2ccc([N+](=O)[O-])cc2NC1=O)c1cc(Cl)cc([N+](=O)[O-])c1 (configuration not stated) | > 100 µM (inactive) | > 100 µM (inactive) | > 100 | > 100 µM (inactive) | > 100 µM (inactive) | > 100 µM (inactive) | 8.65 µM (inactive) |  | > 100 µM (inactive) | > 100 µM (inactive) | > 100 µM (inactive) | 44.2 µM (inactive) | > 100 µM (inactive) | > 100 µM (inactive) | > 100 µM (inactive) | 72.3 µM (inactive) | > 100 µM (inactive) | > 100 µM (inactive) | > 100 µM (inactive) |  |
| COc1nc(C#CCC(C)O)nc(OC)n1 (configuration not stated) | 17.1 µM (inactive) |  | 18.6 |  | 19.9 µM (inactive) | 39.4 µM (inactive) | 17.7 µM (inactive) | 19.5 µM (inactive) | 18.8 µM (inactive) | 19.1 µM (inactive) | 17.1 µM (inactive) |  | 21.3 µM (inactive) | 31.6 µM (inactive) | > 100 µM (inactive) | 21.1 µM (inactive) | 29.6 µM (inactive) | 30.9 µM (inactive) | 19.5 µM (inactive) | 11.5 µM (inactive) |
| CC1=C2C(O)C(C(C)C(=O)NC(C)C)CCC2(C)C=CC1=O (configuration not stated) |  | > 100 µM (inactive) | > 100 | > 100 µM (inactive) | > 100 µM (inactive) | > 100 µM (inactive) | > 100 µM (inactive) | > 100 µM (inactive) | > 100 µM (inactive) | > 100 µM (inactive) | > 100 µM (inactive) | > 100 µM (inactive) | > 100 µM (inactive) | > 100 µM (inactive) | > 100 µM (inactive) |  | > 100 µM (inactive) | > 100 µM (inactive) | > 100 µM (inactive) |  |
| COC(=O)c1cc(-c2cccn2C)c2c(c1C(=O)OC)c1ccccc1n2C | 17.9 µM (inactive) | 45.5 µM (inactive) | 22.4 |  | 85.7 µM (inactive) | 39.8 µM (inactive) | 18.1 µM (inactive) | 12.7 µM (inactive) | 37.8 µM (inactive) |  | 56.9 µM (inactive) | 43.7 µM (inactive) |  | 71.1 µM (inactive) | > 100 µM (inactive) | 16.9 µM (inactive) | 70.5 µM (inactive) | 82 µM (inactive) | > 100 µM (inactive) | > 100 µM (inactive) |
| CC(=O)OC1CCC2(C)C3CCC4(C)C(c5ccc(=O)oc5)CC5OC54C3CCC2(O)C1 (configuration not stated) |  | 2.98 µM (inactive) | 1.9 | 4.72 µM (inactive) | 0.649 µM (active) | 0.579 µM (active) | 0.53 µM (active) | 0.59 µM (active) | 2.3 µM (inactive) | 5.81 µM (inactive) | 1.15 µM (inactive) | 0.869 µM (active) | 0.621 µM (active) | 4.27 µM (inactive) | 4.49 µM (inactive) |  | 2.21 µM (inactive) | 3.04 µM (inactive) | 0.617 µM (active) | 0.895 µM (active) |
